Experimental data: ChEMBL document CHEMBL5528027, “Target identification, and optimization of dioxygenated amide derivatives as potent antibacterial agents with FabH inhibitory activity” (Eur J Med Chem, 2024)
In brackets after ≈: the same amount, converted by molar mass.

Columns and labels:
Escherichia coli = assay: Antibacterial activity against Escherichia coli assessed as reduction in bacterial growth measured after 24 hrs by two-fold serial dilution method; assay type: functional
Pseudomonas aeruginosa = assay: Antibacterial activity against Pseudomonas aeruginosa assessed as reduction in bacterial growth measured after 24 hrs by two-fold serial dilution method; assay type: functional
Bacillus subtilis = assay: Antibacterial activity against Bacillus subtilis assessed as reduction in bacterial growth measured after 24 hrs by two-fold serial dilution method; assay type: functional
Staphylococcus aureus = assay: Antibacterial activity against Staphylococcus aureus assessed as reduction in bacterial growth measured after 24 hrs by two-fold serial dilution method; assay type: functional
Klebsiella pneumoniae = assay: Antibacterial activity against Klebsiella pneumoniae assessed as reduction in bacterial growth measured after 24 hrs by two-fold serial dilution method; assay type: functional
Streptococcus pneumoniae = assay: Antibacterial activity against Streptococcus pneumoniae assessed as reduction in bacterial growth measured after 24 hrs by two-fold serial dilution method; assay type: functional
[1] = target: T1, Beta-ketoacyl-[acyl-carrier-protein] synthase III (Escherichia coli K-12, UniProt P0A6R0); assay: Inhibition of Escherichia coli FabH
T1 sequence (P0A6R0 whole entry): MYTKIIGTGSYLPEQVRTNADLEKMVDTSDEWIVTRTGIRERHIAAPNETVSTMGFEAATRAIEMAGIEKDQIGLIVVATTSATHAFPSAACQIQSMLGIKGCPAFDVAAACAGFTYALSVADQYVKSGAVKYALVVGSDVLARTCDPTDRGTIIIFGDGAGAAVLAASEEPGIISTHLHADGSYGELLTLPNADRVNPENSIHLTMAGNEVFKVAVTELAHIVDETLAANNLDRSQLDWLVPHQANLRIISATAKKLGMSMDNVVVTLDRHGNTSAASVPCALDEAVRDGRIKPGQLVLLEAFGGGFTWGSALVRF

Erythrocyte = assay: Hemolytic activity in human erythrocytes assessed as hemolysis by spectrophotometric analysis; assay type: toxicity, cell-based
[2] = Cytotoxicity against mouse NIH3T3 cells incubated for 24 hrs by MTT analysis; assay type: toxicity, cell-based

| Compound | MIC (Escherichia coli) | MIC (Pseudomonas aeruginosa) | MIC (Bacillus subtilis) | MIC (Staphylococcus aureus) | MIC (Klebsiella pneumoniae) | MIC (Streptococcus pneumoniae) | IC50 [1] | HC30 (Erythrocyte) | IC50 at 24 h [2] |
| --- | --- | --- | --- | --- | --- | --- | --- | --- | --- |
| CC(=O)N1CCC(NC(=O)c2ccc3c(c2)OCCCO3)CC1 | 12.5 µg/mL (≈ 39.3 µM) | 3.13 µg/mL (≈ 9.83 µM) | 25 µg/mL (≈ 78.5 µM) | 3.13 µg/mL (≈ 9.83 µM) | 3.13 µg/mL (≈ 9.83 µM) | 25 µg/mL (≈ 78.5 µM) | 17.5 µM | > 10 µg/mL | 132 µM |
| O=C(c1ccc2c(c1)OCCCO2)N1CCN(Cc2ccccc2)CC1 | 50 µg/mL (≈ 142 µM) | 50 µg/mL (≈ 142 µM) | > 100 µg/mL | 50 µg/mL (≈ 142 µM) | 25 µg/mL (≈ 70.9 µM) | 25 µg/mL (≈ 70.9 µM) | – | – | – |
| COc1cc(NC(=O)c2ccc3c(c2)OCCCO3)c2ncccc2c1 | 50 µg/mL (≈ 143 µM) | 50 µg/mL (≈ 143 µM) | > 100 µg/mL | 50 µg/mL (≈ 143 µM) | 50 µg/mL (≈ 143 µM) | > 100 µg/mL | – | – | – |
| COc1ccc2[nH]cc(CNC(=O)c3ccc4c(c3)OCCCO4)c2c1 | 25 µg/mL (≈ 70.9 µM) | 50 µg/mL (≈ 142 µM) | 25 µg/mL (≈ 70.9 µM) | 50 µg/mL (≈ 142 µM) | 50 µg/mL (≈ 142 µM) | > 100 µg/mL | – | – | – |
| O=C(Nc1nccc2ccccc12)c1ccc2c(c1)OCCCO2 | 50 µg/mL (≈ 156 µM) | 50 µg/mL (≈ 156 µM) | > 100 µg/mL | 50 µg/mL (≈ 156 µM) | 25 µg/mL (≈ 78 µM) | > 100 µg/mL | – | – | – |
| Cc1ccc(NC(=O)c2ccc3c(c2)OCCCO3)cn1 | 25 µg/mL (≈ 87.9 µM) | 50 µg/mL (≈ 176 µM) | > 100 µg/mL | 50 µg/mL (≈ 176 µM) | > 100 µg/mL | > 100 µg/mL | – | – | – |
| O=C(Nc1cncc(Cl)n1)c1ccc2c(c1)OCCCO2 | 25 µg/mL (≈ 81.8 µM) | 25 µg/mL (≈ 81.8 µM) | 25 µg/mL (≈ 81.8 µM) | 25 µg/mL (≈ 81.8 µM) | 25 µg/mL (≈ 81.8 µM) | 50 µg/mL (≈ 164 µM) | – | – | – |
| CC(=O)c1cccnc1NC(=O)c1ccc2c(c1)OCCCO2 | 6.25 µg/mL (≈ 20 µM) | > 100 µg/mL | 50 µg/mL (≈ 160 µM) | 50 µg/mL (≈ 160 µM) | 25 µg/mL (≈ 80 µM) | > 100 µg/mL | 46.4 µM | > 10 µg/mL | 128 µM |
| O=C(NCCc1nc2ccccc2[nH]1)c1ccc2c(c1)OCCCO2 | 25 µg/mL (≈ 74.1 µM) | 50 µg/mL (≈ 148 µM) | 25 µg/mL (≈ 74.1 µM) | > 100 µg/mL | > 100 µg/mL | 50 µg/mL (≈ 148 µM) | – | – | – |
| O=C(Nc1cccnc1)c1ccc2c(c1)OCCCO2 | 25 µg/mL (≈ 92.5 µM) | 50 µg/mL (≈ 185 µM) | > 100 µg/mL | 50 µg/mL (≈ 185 µM) | 25 µg/mL (≈ 92.5 µM) | 50 µg/mL (≈ 185 µM) | – | – | – |
| O=C(Nc1cc(Cl)cc2cccnc12)c1ccc2c(c1)OCCCO2 | 1.56 µg/mL (≈ 4.4 µM) | 1.56 µg/mL (≈ 4.4 µM) | 12.5 µg/mL (≈ 35.2 µM) | 3.13 µg/mL (≈ 8.82 µM) | 3.13 µg/mL (≈ 8.82 µM) | 12.5 µg/mL (≈ 35.2 µM) | 4.9 µM | > 10 µg/mL | 115 µM |
| O=C(c1ccc2c(c1)OCCCO2)N1CCCC1 | > 100 µg/mL | 50 µg/mL (≈ 202 µM) | > 100 µg/mL | > 100 µg/mL | > 100 µg/mL | > 100 µg/mL | – | – | – |
| O=C(Nc1ccc(C(F)(F)F)cn1)c1ccc2c(c1)OCCCO2 | 3.13 µg/mL (≈ 9.25 µM) | 6.25 µg/mL (≈ 18.5 µM) | > 100 µg/mL | 50 µg/mL (≈ 148 µM) | 6.25 µg/mL (≈ 18.5 µM) | 25 µg/mL (≈ 73.9 µM) | 8.6 µM | > 10 µg/mL | 204 µM |
| CCOC(=O)c1cccnc1NC(=O)c1ccc2c(c1)OCCCO2 | 6.25 µg/mL (≈ 18.3 µM) | 12.5 µg/mL (≈ 36.5 µM) | 25 µg/mL (≈ 73 µM) | 25 µg/mL (≈ 73 µM) | 25 µg/mL (≈ 73 µM) | 25 µg/mL (≈ 73 µM) | 26.8 µM | > 10 µg/mL | 147 µM |
| O=C(Nc1ccc2ccccc2n1)c1ccc2c(c1)OCCCO2 | 25 µg/mL (≈ 78 µM) | 25 µg/mL (≈ 78 µM) | 25 µg/mL (≈ 78 µM) | 25 µg/mL (≈ 78 µM) | 50 µg/mL (≈ 156 µM) | 25 µg/mL (≈ 78 µM) | – | – | – |
| C#CCCC1(CCNC(=O)c2ccc3c(c2)OCCCO3)N=N1 | 6.25 µg/mL (≈ 19.9 µM) | 6.25 µg/mL (≈ 19.9 µM) | 6.25 µg/mL (≈ 19.9 µM) | 6.25 µg/mL (≈ 19.9 µM) | – | – | – | – | – |
| O=C(c1ccc2c(c1)OCCCO2)N1CCN(C(=O)c2ccc3c(c2)OCCCO3)CC1 | > 100 µg/mL | > 100 µg/mL | 50 µg/mL (≈ 114 µM) | > 100 µg/mL | > 100 µg/mL | > 100 µg/mL | – | – | – |
| O=C(c1ccc2c(c1)OCCCO2)N1CCOCC1 | 25 µg/mL (≈ 95 µM) | 25 µg/mL (≈ 95 µM) | 25 µg/mL (≈ 95 µM) | 12.5 µg/mL (≈ 47.5 µM) | 12.5 µg/mL (≈ 47.5 µM) | 50 µg/mL (≈ 190 µM) | – | – | – |
